Experimental data as given in paper PMC10301845, “Characterization of a Novel M4 PAM PET Radioligand [11C]PF06885190 in Nonhuman Primates (NHP)” (Molecules, 2023).

Tested on: M4
Assay: PET measurements of brain distribution in NHP (SUV, VT by 1-TC and Logan)
Format: in vivo, cynomolgus monkey (Macaca fascicularis)
Parameters: VT 1-TC Baseline: unit not given here
Conditions: for VT 1-TC %Decrease / VT Logan %Decrease: baseline vs pretreatment with CVL-231; for VT 1-TC Pretreatment / VT Logan Pretreatment: pretreatment with CVL-231
Protocol: Two male cynomolgus monkeys (Macaca fascicularis, NHP) M1 and M2, with body weight of 7.8 kg and 7.1 kg, respectively, were studied on three different experimental days for a total of six PET measurements. Both NHPs underwent two PET measurements on the same day. The first PET measurement was performed with [^11C]PF06885190, followed by the second PET measurement after pretreatment with either CVL-231 or donepezil. CVL-231 (0.24 mg/kg, IV) was administrated 10 min before the administration of [^11C]PF06885190 via a constant infusion (0.0027 mg/min/kg) throughout the whole PET measurement. Donepezil (0.25 mg/kg) was administrated 30 min before the administration of [^11C]PF06885190. Both NHPs were supplied by the Astrid Fagraeus Laboratory of the Swedish Institute for Infectious Disease Control (SMI), Solna, Sweden. The study was approved by the Animal Ethics Committee of the Swedish Animal Welfare Agency and was performed according to “Guidelines for planning, conducting and documenting experimental research” (Dnr 4820/06-600) of the KI as well as the “Guide for the Care and Use of Laboratory Animals” [26]. Anesthesia was initiated at Astrid Fagraeus Laboratory either by intramuscular injection of ketamine hydrochloride (10 mg/kg) and maintained by the administration of a mixture of isoflurane, oxygen, and medical air through endotracheal intubation, or by intravenous infusion of a mixture of ketamine hydrochloride (4 mg/kg/h) and xylazine hydrochloride (0.4 mg/kg/h). To fix the position of the head of the NHP during the course of whole PET measurement, a prototype device was used. Body temperature was maintained by a Bair Hugger-Model 505 (Arizant Health Care Inc., Eden Prairie, MN 55344, USA) and monitored by an oral thermometer. ECG, heart rate, respiratory rate and oxygen saturation were continuously monitored throughout the experiments and blood pressure was monitored every 15 min.
All the PET measurements in this study were performed by using a High Resolution Research Tomograph (HRRT) (Siemens Molecular Imaging) scanner. The corresponding in-plane resolution with OP-3D-OSEM PSF was 1.5 mm full width at half-maximum (FWHM) at the center of the field of view (FOV) and 2.4 mm at 10 cm off-center directions. List-mode data were acquired continuously for 123 min immediately after intravenous injection of [^11C]PF06885190. Images were reconstructed by the ordinary Poisson-3D-ordered subset expectation maximization (OP-3D-OSEM) algorithm. Prior to each PET acquisition, a 6 min transmission scan was performed, using a single ^137Cs source, for attenuation and scatter correction. Brain magnetic resonance imaging was performed in a 1.5-T GE Signa system (General Electric, Milwaukee, WI, USA). A T1-weighted image was obtained for co-registration with PET and delineation of anatomic brain regions. The T1 sequence was a 3D spoiled gradient-recalled (SPGR) protocol with the following settings: repetition time (TR) 21 ms, flip angle 35°; FOV 12.8; matrix 256 × 256 × 128; 128 × 1.0 mm slices; 2 NEX. The sequence was optimized for trade-off between a minimum of scanning time and a maximum of spatial resolution and contrast between gray and white matter.
For both NHPs, the radioligand [^11C]PF06885190 was administrated with an intravenous (i.v.) injection. The regions of interests (ROIs) were delineated manually on MRI images of each NHP for the whole brain, cerebellum, caudate, putamen, thalamus, frontal cortex, temporal cortex, hippocampus, anterior cingulate cortex, posterior cingulate cortex, parietal cortex, occipital cortex, amygdala, ventral striatum and insula. The summed PET images of the whole duration were co-registered to the MRI image of the individual NHP. After applying the co-registration parameters to the dynamic PET data, the time-activity curves (TACs) of brain regions were generated for each PET measurement. Standardized uptake value (SUV) was calculated for each brain region. […]

[1] = anterior cingulate cortex, baseline
[2] = posterior cingulate cortex, baseline

VT 1-TC Baseline (amygdala, baseline): 2.290
VT Logan Baseline (amygdala, baseline): 2.549
VT 1-TC Pretreatment (amygdala): 2.137
VT Logan Pretreatment (amygdala): 2.304
VT 1-TC Baseline [1]: 2.245
VT Logan Baseline [1]: 2.503
VT 1-TC Pretreatment (anterior cingulate cortex): 2.030
VT Logan Pretreatment (anterior cingulate cortex): 2.293
Whole brain uptake at peak (baseline conditions, i.v.): 2.0–4.1 SUV
wash-out: time to drop to half of the peak (brain, baseline): around 10 min
VT 1-TC Baseline (caudate, baseline): 2.388
VT Logan Baseline (caudate, baseline): 2.683
VT 1-TC Pretreatment (caudate): 2.357
VT Logan Pretreatment (caudate): 2.475
VT 1-TC Baseline (cerebellum, baseline): 2.205
VT Logan Baseline (cerebellum, baseline): 3.055
VT 1-TC Pretreatment (cerebellum): 1.875
VT Logan Pretreatment (cerebellum): 2.401
VT 1-TC Baseline (frontal cortex, baseline): 2.521
VT Logan Baseline (frontal cortex, baseline): 2.940
VT 1-TC Pretreatment (frontal cortex): 2.140
VT Logan Pretreatment (frontal cortex): 2.394
VT 1-TC Baseline (hippocampus, baseline): 2.361
VT Logan Baseline (hippocampus, baseline): 2.595
VT 1-TC Pretreatment (hippocampus): 2.146
VT Logan Pretreatment (hippocampus): 2.341
VT 1-TC Baseline (insula, baseline): 2.617
VT Logan Baseline (insula, baseline): 2.811
VT 1-TC Pretreatment (insula): 2.314
VT Logan Pretreatment (insula): 2.631
VT 1-TC Baseline (occipital cortex, baseline): 2.871
VT Logan Baseline (occipital cortex, baseline): 3.534
VT 1-TC Pretreatment (occipital cortex): 2.462
VT Logan Pretreatment (occipital cortex): 2.873
VT 1-TC Baseline (parietal cortex, baseline): 2.515
VT Logan Baseline (parietal cortex, baseline): 2.709
VT 1-TC Pretreatment (parietal cortex): 2.109
VT Logan Pretreatment (parietal cortex): 2.316
VT 1-TC Baseline [2]: 2.384
VT Logan Baseline [2]: 2.723
VT 1-TC Pretreatment (posterior cingulate cortex): 1.963
VT Logan Pretreatment (posterior cingulate cortex): 2.225
VT 1-TC Baseline (putamen, baseline): 2.632
VT Logan Baseline (putamen, baseline): 3.006
VT 1-TC Pretreatment (putamen): 2.539
VT Logan Pretreatment (putamen): 2.795
VT 1-TC Baseline (temporal cortex, baseline): 2.690
VT Logan Baseline (temporal cortex, baseline): 2.992
VT 1-TC Pretreatment (temporal cortex): 2.383
VT Logan Pretreatment (temporal cortex): 2.717
VT 1-TC Baseline (thalamus, baseline): 2.496
VT Logan Baseline (thalamus, baseline): 2.778
VT 1-TC Pretreatment (thalamus): 2.337
VT Logan Pretreatment (thalamus): 2.367
VT 1-TC Baseline (ventral striatum, baseline): 2.305
VT Logan Baseline (ventral striatum, baseline): 2.398
VT 1-TC Pretreatment (ventral striatum): 2.144
VT Logan Pretreatment (ventral striatum): 2.324
SMILES: Cc1nc(N[11CH3])c2c(c1C)CN(C(=O)C[C@H]1C[C@@H]1c1ccc(F)nc1)C2 [[^11C]PF06885190]
Change of VT from baseline (after pretreatment with M4 PAM CVL-231): around −10%
VT 1-TC %Decrease (amygdala): 6.7%
VT Logan %Decrease (amygdala): 9.6%
VT 1-TC %Decrease (anterior cingulate cortex): 9.6%
VT Logan %Decrease (anterior cingulate cortex): 8.4%
VT 1-TC %Decrease (average of brain regions): 10.3%
VT Logan %Decrease (average of brain regions): 12%
VT 1-TC %Decrease (caudate): 1.3%
VT Logan %Decrease (caudate): 7.8%
VT 1-TC %Decrease (cerebellum): 15.0%
VT Logan %Decrease (cerebellum): 21.4%
change of VT after administration of donepezil (donepezil 0.25 mg/kg 30 min before radioligand): No significant change
VT 1-TC %Decrease (frontal cortex): 15.1%
VT Logan %Decrease (frontal cortex): 18.6%
VT 1-TC %Decrease (hippocampus): 9.1%
VT Logan %Decrease (hippocampus): 9.8%
VT 1-TC %Decrease (insula): 11.6%
VT Logan %Decrease (insula): 6.4%
VT 1-TC %Decrease (occipital cortex): 14.2%
VT Logan %Decrease (occipital cortex): 18.7%
VT 1-TC %Decrease (parietal cortex): 16.1%
VT Logan %Decrease (parietal cortex): 14.5%
VT 1-TC %Decrease (posterior cingulate cortex): 17.7%
VT Logan %Decrease (posterior cingulate cortex): 18.3%
decrease after pretreatment (pretreatment with specific M4 ligand CVL-231): 10%
VT 1-TC %Decrease (putamen): 3.5%
VT Logan %Decrease (putamen): 7.0%
VT 1-TC %Decrease (temporal cortex): 11.4%
VT Logan %Decrease (temporal cortex): 9.2%
VT 1-TC %Decrease (thalamus): 6.4%
VT Logan %Decrease (thalamus): 14.8%
VT 1-TC %Decrease (ventral striatum): 7.0%
VT Logan %Decrease (ventral striatum): 3.1%
